We go through eleven molecules from patent US9708314B2, “Heterocyclic amide compound” (NISSAN CHEMICAL INDUSTRIES, LTD., priority 2013, dated 2017).

Common to all, as to assay type: in vivo
One data set relates to Glycine max. Kind of data set: Test Example 4: effect on crop by application to foliage (diluvial soil, plastic box). To be noted: for d (Glycine max) effect on crop grade / c: Application herbicide amount 320 g/ha; for d (Glycine max) effect on crop grade: foliage application; for d: effect on crop, Glycine max: application to foliage, application herbicide amount 320 g/ha; for c: effect on crop. In outline:
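Greenhouse plants (25° C. to 30° C., 14 d, diluvial soil) receive a foliar spray of water-diluted emulsifiable formulation at defined g/ha. Grading after 3 weeks uses a six-step herbicidal-ratio scale, with 4 covering 70% to <90% and 1 covering 5% to <20%.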

Another data set deals with Monochoria vaginalis. Kind of data set: Test Example 1: herbicidal activity, application before weed generation in submerged conditions. Conditions: Application herbicide amount 320 g/ha; Seventeenth Table. In outline: (§1)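 Water-diluted emulsion formulation is applied onto flood water (4 cm deep) covering alluvial soil on the day weed seeds are sown, after transplanting 2.5 leaf stage rice. Rates are expressed per hectare. Injury or control is graded 0–5 three weeks later.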

A further data set relates to Scirpus juncoides. Described as above. To be noted: Application herbicide amount 320 g/ha; Seventeenth Table. In outline: as §1
For data set [1], the system named is Echinochloa oryzacola Vasing. The data set is described as above. To be noted: Application herbicide amount 320 g/ha; Seventeenth Table. The method, boiled down: as §1
The subject of the next data set is Cyperus difformis. Kind of data set: Test Example 3: herbicidal effect by application to foliage (Wagner pot, water depth 0.1-0.5 cm). To be noted: Nineteenth Table; application to foliage; application herbicide amount 320 g/ha. In outline: (§2)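 Foliar spray, 14-day-old plants, emulsion diluted to target g/ha; rated 3 wk post-application, 0–5 scale (0 ≤5%, 5 ≥90% herbicidal ratio). Greenhouse 25–30 °C, alluvial soil.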

Data set [2] deals with Echinochloa crus-galli var. crus-galli. The data set is described as above. Conditions: Nineteenth Table; application to foliage; application herbicide amount 320 g/ha. The method, boiled down:
as §2

A further data set deals with Leptochloa chinensis. The data set is described as above. To be noted: Nineteenth Table; application to foliage; application herbicide amount 320 g/ha. The method, boiled down:
as §2

As to `CCN(CC)c1nnc2c(C(=O)Nc3nnc(C)o3)ccc(C(F)(F)F)n12` [1-135], the “d (Glycine max) effect on crop grade” value with Glycine max was 3 (Herbicidal ratio of 40% or more and less than 70%). In the data set on Monochoria vaginalis, the “C: Monochoria vaginalis (herbicidal effect grade)” value (shortened to “C: Monochoria vaginalis”) was 4 (Herbicidal ratio of 70% or more and less than 90%). Further, the “B: Scirpus juncoides (herbicidal effect grade)” value (“B: Scirpus juncoides” for short) with Scirpus juncoides was 4 (Herbicidal ratio of 70% or more and less than 90%). Besides, the “A: Echinochloa oryzicola Vasing. (herbicidal effect grade)” value in data set [1] is 3 (Herbicidal ratio of 40% or more and less than 70%). The “E (herbicidal effect grade)” value in the data set with Cyperus difformis is 2 (Herbicidal ratio of 20% or more and less than 40%). The “H (herbicidal effect grade)” value in data set [2] is 5 (Herbicidal ratio of 90% or more (almost completely withered)). The “D (herbicidal effect grade)” value in the data set on Leptochloa chinensis is 4 (Herbicidal ratio of 70% or more and less than 90%).
With `CCC(CC)c1nnc2c(C(=O)Nc3nnco3)ccc(C(F)(F)F)n12` [1-145], the “d (Glycine max) effect on crop grade” value with Glycine max is 3 (Herbicidal ratio of 40% or more and less than 70%). In the data set on Monochoria vaginalis, the “C: Monochoria vaginalis” value was 5 (Herbicidal ratio of 90% or more (almost completely withered)). In addition, the “B: Scirpus juncoides” value in the data set with Scirpus juncoides is 5 (Herbicidal ratio of 90% or more (almost completely withered)). Also, the “A: Echinochloa oryzicola Vasing. (herbicidal effect grade)” value in data set [1] is reported as 5 (Herbicidal ratio of 90% or more (almost completely withered)). For the same molecule, the “E (herbicidal effect grade)” value in the data set on Cyperus difformis is reported as 5 (Herbicidal ratio of 90% or more (almost completely withered)). Further, in data set [2], the “H (herbicidal effect grade)” value is on record as 5 (Herbicidal ratio of 90% or more (almost completely withered)). In addition, the “D (herbicidal effect grade)” value with Leptochloa chinensis is recorded as 5 (Herbicidal ratio of 90% or more (almost completely withered)).
As to `Cn1nnnc1NC(=O)c1ccc(C(F)(F)F)n2c(-c3ccccc3)nnc12` [2-007], the “d: effect on crop, Glycine max” value in the data set on Glycine max is 3 (Herbicidal ratio of 40% or more and less than 70%). Besides, in the data set with Monochoria vaginalis, the “C: Monochoria vaginalis” value is reported as 5 (Herbicidal ratio of 90% or more (almost completely withered)). Moreover, in the data set with Scirpus juncoides, the “B: Scirpus juncoides” value was 5 (Herbicidal ratio of 90% or more (almost completely withered)). The “A: Echinochloa oryzicola Vasing. (herbicidal effect grade)” value in data set [1] is on record as 5 (Herbicidal ratio of 90% or more (almost completely withered)). Besides, the “E (herbicidal effect grade)” value with Cyperus difformis is listed as 5 (Herbicidal ratio of 90% or more (almost completely withered)). For the same molecule, the “H (herbicidal effect grade)” value in data set [2] is 5 (Herbicidal ratio of 90% or more (almost completely withered)). Moreover, the “D (herbicidal effect grade)” value in the data set on Leptochloa chinensis is recorded as 5 (Herbicidal ratio of 90% or more (almost completely withered)).
On to `CCC(C)c1nnc2c(C(=O)Nc3nnnn3C)ccc(C(F)(F)F)n12` (centres unmarked) [2-016], for which the “d: effect on crop, Glycine max” value with Glycine max is 4 (Herbicidal ratio of 70% or more and less than 90%). The “C: Monochoria vaginalis” value with Monochoria vaginalis is reported as 5 (Herbicidal ratio of 90% or more (almost completely withered)). The “B: Scirpus juncoides” value in the data set on Scirpus juncoides is given as 5 (Herbicidal ratio of 90% or more (almost completely withered)). Besides, the “A: Echinochloa oryzicola Vasing. (herbicidal effect grade)” value in data set [1] is 5 (Herbicidal ratio of 90% or more (almost completely withered)). In addition, the “E (herbicidal effect grade)” value in the data set with Cyperus difformis is 5 (Herbicidal ratio of 90% or more (almost completely withered)). Besides, the “H (herbicidal effect grade)” value in data set [2] is 5 (Herbicidal ratio of 90% or more (almost completely withered)). For the same molecule, the “D (herbicidal effect grade)” value in the data set on Leptochloa chinensis is on record as 5 (Herbicidal ratio of 90% or more (almost completely withered)).
For the molecule `O=C(Nc1nnco1)c1ccc(C(F)(F)F)n2c(-c3ccc(Cl)nc3)nnc12` [1-150], the “d (Glycine max) effect on crop grade” value in the data set on Glycine max is 4 (Herbicidal ratio of 70% or more and less than 90%). In addition, the “C: Monochoria vaginalis” value in the data set with Monochoria vaginalis is 5 (Herbicidal ratio of 90% or more (almost completely withered)). Besides, the “B: Scirpus juncoides” value with Scirpus juncoides is recorded as 5 (Herbicidal ratio of 90% or more (almost completely withered)). Besides, in data set [1], the “A: Echinochloa oryzicola Vasing. (herbicidal effect grade)” value is on record as 5 (Herbicidal ratio of 90% or more (almost completely withered)). In the data set on Cyperus difformis, the “E (herbicidal effect grade)” value was 5 (Herbicidal ratio of 90% or more (almost completely withered)). In data set [2], the “H (herbicidal effect grade)” value was 5 (Herbicidal ratio of 90% or more (almost completely withered)). The “D (herbicidal effect grade)” value in the data set on Leptochloa chinensis is listed as 5 (Herbicidal ratio of 90% or more (almost completely withered)).
`C=CCSc1nnc2c(C(=O)Nc3nnc(C)o3)ccc(C(F)(F)F)n12` [1-064]: in the data set with Glycine max, the c is recorded as 0 (Herbicidal ratio of 5% or less (almost no effect)). Besides, the “C: Monochoria vaginalis” value with Monochoria vaginalis is 3 (Herbicidal ratio of 40% or more and less than 70%). The “B: Scirpus juncoides” value with Scirpus juncoides was 4 (Herbicidal ratio of 70% or more and less than 90%). Further, in data set [1], the “A: Echinochloa oryzicola Vasing. (herbicidal effect grade)” value is given as 5 (Herbicidal ratio of 90% or more (almost completely withered)). Further, the “E (herbicidal effect grade)” value in the data set on Cyperus difformis is 4 (Herbicidal ratio of 70% or more and less than 90%). Also, in data set [2], the “H (herbicidal effect grade)” value was 5 (Herbicidal ratio of 90% or more (almost completely withered)). Besides, the “D (herbicidal effect grade)” value in the data set with Leptochloa chinensis is 4 (Herbicidal ratio of 70% or more and less than 90%).
Consider `CCCSc1nnc2c(C(=O)Nc3nnco3)ccc(C(F)(F)F)n12` [1-108], for which the “d (Glycine max) effect on crop grade” value in the data set with Glycine max is 4 (Herbicidal ratio of 70% or more and less than 90%). The “C: Monochoria vaginalis” value in the data set on Monochoria vaginalis is given as 5 (Herbicidal ratio of 90% or more (almost completely withered)). Moreover, in the data set with Scirpus juncoides, the “B: Scirpus juncoides” value was 5 (Herbicidal ratio of 90% or more (almost completely withered)). Further, the “A: Echinochloa oryzicola Vasing. (herbicidal effect grade)” value in data set [1] is recorded as 5 (Herbicidal ratio of 90% or more (almost completely withered)). For the same molecule, in the data set on Cyperus difformis, the “E (herbicidal effect grade)” value is 5 (Herbicidal ratio of 90% or more (almost completely withered)). Moreover, the “H (herbicidal effect grade)” value in data set [2] was 5 (Herbicidal ratio of 90% or more (almost completely withered)). Moreover, the “D (herbicidal effect grade)” value in the data set on Leptochloa chinensis is on record as 5 (Herbicidal ratio of 90% or more (almost completely withered)).
Consider `Cc1nnc(NC(=O)c2ccc(C(F)(F)F)n3c(SCC4CC4)nnc23)o1` [1-115], for which, in the data set on Glycine max, the “d (Glycine max) effect on crop grade” value is 2 (Herbicidal ratio of 20% or more and less than 40%). Besides, the “C: Monochoria vaginalis” value in the data set on Monochoria vaginalis is 3 (Herbicidal ratio of 40% or more and less than 70%). In the data set on Scirpus juncoides, the “B: Scirpus juncoides” value is 4 (Herbicidal ratio of 70% or more and less than 90%). Besides, the “A: Echinochloa oryzicola Vasing. (herbicidal effect grade)” value in data set [1] is 5 (Herbicidal ratio of 90% or more (almost completely withered)). Also, the “E (herbicidal effect grade)” value in the data set with Cyperus difformis is 4 (Herbicidal ratio of 70% or more and less than 90%). For the same molecule, the “H (herbicidal effect grade)” value in data set [2] is 5 (Herbicidal ratio of 90% or more (almost completely withered)). Besides, the “D (herbicidal effect grade)” value in the data set with Leptochloa chinensis was 4 (Herbicidal ratio of 70% or more and less than 90%).
`CCSc1nnc2c(C(=O)Nc3nnco3)ccc(C(F)(F)F)n12` [1-106]: in the data set on Glycine max, the “d (Glycine max) effect on crop grade” value is 3 (Herbicidal ratio of 40% or more and less than 70%). Further, the “C: Monochoria vaginalis” value in the data set with Monochoria vaginalis is 4 (Herbicidal ratio of 70% or more and less than 90%). For the same molecule, the “B: Scirpus juncoides” value in the data set with Scirpus juncoides is given as 5 (Herbicidal ratio of 90% or more (almost completely withered)). In data set [1], the “A: Echinochloa oryzicola Vasing. (herbicidal effect grade)” value is recorded as 5 (Herbicidal ratio of 90% or more (almost completely withered)). Also, the “E (herbicidal effect grade)” value in the data set on Cyperus difformis is given as 5 (Herbicidal ratio of 90% or more (almost completely withered)). The “H (herbicidal effect grade)” value in data set [2] is recorded as 5 (Herbicidal ratio of 90% or more (almost completely withered)). In the data set with Leptochloa chinensis, the “D (herbicidal effect grade)” value is listed as 5 (Herbicidal ratio of 90% or more (almost completely withered)).
For the molecule `COCCSc1nnc2c(C(=O)Nc3nnc(C)o3)ccc(C(F)(F)F)n12` [1-063], the c in the data set with Glycine max was 3 (Herbicidal ratio of 40% or more and less than 70%). Further, the “C: Monochoria vaginalis” value in the data set with Monochoria vaginalis is 3 (Herbicidal ratio of 40% or more and less than 70%). Moreover, the “B: Scirpus juncoides” value with Scirpus juncoides is 4 (Herbicidal ratio of 70% or more and less than 90%). The “A: Echinochloa oryzicola Vasing. (herbicidal effect grade)” value in data set [1] was 5 (Herbicidal ratio of 90% or more (almost completely withered)). In the data set with Cyperus difformis, the “E (herbicidal effect grade)” value was 5 (Herbicidal ratio of 90% or more (almost completely withered)). In data set [2], the “H (herbicidal effect grade)” value is 5 (Herbicidal ratio of 90% or more (almost completely withered)). Moreover, the “D (herbicidal effect grade)” value in the data set on Leptochloa chinensis was 5 (Herbicidal ratio of 90% or more (almost completely withered)).
Turning to `CCC(CC)c1nnc2c(C(=O)Nc3nnnn3C)ccc(C(F)(F)F)n12` [2-006], the “d: effect on crop, Glycine max” value in the data set with Glycine max was 4 (Herbicidal ratio of 70% or more and less than 90%). Also, the “C: Monochoria vaginalis” value in the data set on Monochoria vaginalis is 5 (Herbicidal ratio of 90% or more (almost completely withered)). Also, the “B: Scirpus juncoides” value in the data set on Scirpus juncoides is 5 (Herbicidal ratio of 90% or more (almost completely withered)). Moreover, the “A: Echinochloa oryzicola Vasing. (herbicidal effect grade)” value in data set [1] was 5 (Herbicidal ratio of 90% or more (almost completely withered)). In addition, the “E (herbicidal effect grade)” value in the data set with Cyperus difformis is 5 (Herbicidal ratio of 90% or more (almost completely withered)). Further, the “H (herbicidal effect grade)” value in data set [2] is on record as 5 (Herbicidal ratio of 90% or more (almost completely withered)). Moreover, the “D (herbicidal effect grade)” value in the data set on Leptochloa chinensis is 5 (Herbicidal ratio of 90% or more (almost completely withered)).
